Laboratory results reported in patent EP1200395B1, “UREA DERIVATIVES AS INHIBITORS OF CCR-3 RECEPTOR” (KIRIN BEER KABUSHIKI KAISHA, priority 1999, dated 2001).

Key:
[1] = biological target: T1, CCR-3 (Homo sapiens, UniProt P51677); test: Eotaxin-induced chemotaxis of CCR-3 transfectant cells (CCR3/U937); format: cell-based; parameters: expressed in transfected cells; host or cells: U937; details: eotaxin 1 x 10^-9 M; for inhibition at 10 µM: U-937; for inhibition at 10 µM / Chemotaxis Assay 10 µM (inhibition %): 10 µM test compound; for CCR-3 Transfectant Chemotaxis Assay 6.25 µg/ml (inhibition %): 6.25 µg/ml test compound, CCR3/U937 cells (Table 3b)
T1 sequence (P51677 1-355): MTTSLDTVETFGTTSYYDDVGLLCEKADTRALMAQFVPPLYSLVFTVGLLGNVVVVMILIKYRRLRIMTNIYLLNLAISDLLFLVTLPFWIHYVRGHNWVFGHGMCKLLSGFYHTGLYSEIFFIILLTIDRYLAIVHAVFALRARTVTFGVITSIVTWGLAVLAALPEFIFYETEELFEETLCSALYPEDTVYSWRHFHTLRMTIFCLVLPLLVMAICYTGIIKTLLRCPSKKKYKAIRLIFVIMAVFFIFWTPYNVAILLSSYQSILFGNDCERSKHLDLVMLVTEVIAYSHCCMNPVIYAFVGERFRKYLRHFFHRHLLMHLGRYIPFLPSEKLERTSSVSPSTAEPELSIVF

[2] = tested on: human-derived eosinophils; test: Eotaxin-induced chemotaxis of cultured eosinophils; format: cell-based; details: 10.00 µM compound, human eotaxin 1 x 10^-9 M, 37°C for 1 hour; for inhibition at 10 µM: Eosinophil
Description: The inhibitory activity of the compounds against eotaxin-mediated chemotaxis of human-derived eosinophils was determined assay described below. Eosinophils were prepared from culture of human cord blood mononuclear cells as described by Ohashi, H. et al., Int Arch Allergy Immunol. (1999) 118, 44-50. For the assay, eosinophils were resuspended at 1 x 10^7 cells/ml in assay medium (RPMI 1640 medium containing 0.1 % bovine serum albumin (BSA)). The chemotaxis assay was performed in a 24-well culture plate. Human eotaxin suspended in assay medium was added into wells at 1 x 10^-9 M with test compounds at various concentrations. For a positive control, eotaxin was added without a test compound, and for a negative control, neither eotaxin nor a test compound was added to the wells. Chemotaxicell (Kurabo Co., Ltd.) having 5 micrometers pore size were inserted into each well and 100 microliters of eosinophil suspension were added to the top chamber. The plates were incubated at 37°C for 1 hour. After incubation, migrated cells in lower wells were diluted and counted by particle size distribution analyzer (CDP-500, Sysmex Co., Ltd.).

[3] = tested on: collagen-induced arthritis; test: Type II collagen-induced arthritis in mice, clinical score; format: in vivo, Male DBA/1 mice; details: 20 mg/kg per day subcutaneously starting at 2nd immunization; versus control vehicle; Figure 1A/1B
[4] = biological target: T1, CCR-3; test: Calcium mobilization assay (inhibition of eotaxin-induced intracellular calcium mobilization in CCR3/HEK293 cells); format: cell-based; parameters: expressed in transfected cells; details: 6.25 µg/ml test compound; eotaxin 10 nM; CCR3/HEK293 cells (Table 2a)
Description: Compounds 93-162 used in this assay were synthesized by using the method described in Example 6.
CCR-3 transfectant cells (CCR3/HEK293) were isolated and resuspended with assay buffer (20 mM HEPES, 125 mM NaCl, 5 mM KCl; 0.5 mM glucose, 1 mM CaCl2, 1 mM MgCl2, 0.1 % BSA). After washing CCR3/HEK293 cells with assay buffer, cells were loaded with Fura-2/AM in assay buffer for 1 hour at room temperature. Cells were washed and resuspended with assay buffer at 5 x 10^6 cells/ml in assay buffer, and placed in a tissue culture plate (Falcon, no. 3296). Test compounds dissolved in DMSO were added to the wells, followed by eotaxin (10 nM at final concentration). Cells were excited at 340 nm and 380 nm in a fluorimeter (ARGUS50, FDSS2000, Hamamatsu Photonics) and the relative ratio of the fluorescence emitted at 510 nm was recorded. For a control, DMSO without a test compound was added. Intracellular calcium mobilization was calculated as described in Krogel C. et al. , FEBS Let. (1989) 243 , 41-46.

Compound | Ca^2+ mobilization 6.25 µg/ml (inhibition %) [4] | CCR-3 Transfectant Chemotaxis Assay 6.25 µg/ml (inhibition %) [1] | further results
CCN(CCCNC(=O)Nc1ccccc1)CCc1ccc(Cl)cc1 [Compound 1, N-Phenylcarbamoyl-N'-[2-(4-chlorophenyl)ethyl]-N'-ethyl-1,3-diaminopropane] | – | – | inhibition at 10 µM ([1]; CCR3/U937 cells (Table 3a)): 100%; inhibition at 10 µM [2]: 100%
CCN(CCCNC(=O)Nc1ccc(Br)cc1)CCc1ccc(Cl)cc1 [Compound 3, N-(4-Bromophenylcarbamoyl)-N'-[2-(4-chlorophenyl)ethyl]-N'-ethyl-1,3-diaminopropane] | – | – | inhibition at 10 µM ([1]; CCR3/U937 cells (Table 3a)): 100%; inhibition at 10 µM [2]: 100%
COC(=O)CCCN(CCCNC(=O)Nc1ccc(Br)cc1)Cc1ccco1 [Compound 38] | – | – | Chemotaxis Assay 10 µM (inhibition %) ([1]; CCR3/U937 cells (Table 3a)): 46%; Cultured Eosinophil Chemotaxis assay 10.00 µM (inhibition %) [2]: 11%
O=C(O)CCCN(CCCNC(=O)Nc1ccc(Br)cc1)C1CCCc2ccccc21 (stereo not drawn) [Compound 60, 4-[[3-(4-Bromophenylureido)propyl](1,2,3,4-tetrahydro-1-naphthyl)amino]butanoic acid] | – | – | inhibition at 10 µM ([1]; CCR3/U937 cells (Table 3a)): 98%; inhibition at 10 µM [2]: 100%; clinical score, collagen-induced arthritis [3]: marked prevention in clinical score
C[C@H](c1ccccc1)N(CCCNC(=O)Nc1ccc(Br)cc1)CCCC(=O)O [Compound 61, 4-[[3-(4-Bromophenylureido)propyl][(1R)-1-phenylethyl]amino]-butanoic acid] | – | – | inhibition at 10 µM ([1]; CCR3/U937 cells (Table 3a)): 100%; inhibition at 10 µM [2]: 100%
O=C(O)CCCN(CCCNC(=O)Nc1ccc(Cl)c(Cl)c1)C1CCCc2ccccc21 (stereo not drawn) [Compound 65, 4-[[3-(3,4-Dichlorophenylureido)propyl](1,2,3,4-tetrahydro-1-naphthyl)amino]butanoic acid] | – | – | inhibition at 10 µM ([1]; CCR3/U937 cells (Table 3a)): 100%; inhibition at 10 µM [2]: 100%
COc1cc(CN(CCCNC(=O)Nc2ccc(Br)cc2)CCCC(=O)O)cc(OC)c1OC [Compound 66] | – | – | Chemotaxis Assay 10 µM (inhibition %) ([1]; CCR3/U937 cells (Table 3a)): 32%; Cultured Eosinophil Chemotaxis assay 10.00 µM (inhibition %) [2]: 44%
O=C(O)CCCN(CCCNC(=O)Nc1ccc(Br)cc1)Cc1ccccc1 [Compound 67] | – | – | Chemotaxis Assay 10 µM (inhibition %) ([1]; CCR3/U937 cells (Table 3a)): 100%; Cultured Eosinophil Chemotaxis assay 10.00 µM (inhibition %) [2]: 71%
CC[N+](CC)(CCCNC(=O)Nc1ccccc1)CCc1ccc(Cl)cc1 [Compound 91, [3-(Phenylureido)propyl][2-(4-chlorophenyl)ethyl]-diethylammonium iodide] | – | – | inhibition at 10 µM ([1]; CCR3/U937 cells (Table 3c)): 100%; inhibition at 10 µM [2]: 100%
CC[N+](CC)(CCCNC(=O)Nc1ccc(Br)cc1)CCc1ccc(Cl)cc1 [Compound 92, [3-(4-Bromophenylureido)propyl][2-(4-chlorophenyl)ethyl]-diethylammonium iodide] | – | – | inhibition at 10 µM ([1]; CCR3/U937 cells (Table 3c)): 100%; inhibition at 10 µM [2]: 100%
CCOC(=O)C1CC1CN(CCCNC(=O)Nc1ccccc1-c1ccccc1)CCc1ccc(C)cc1 (stereo not drawn) [Compound 112] | 52% | 26% | –
CC(C)CN(CCCNC(=O)Nc1ccccc1-c1ccccc1)CCc1ccc(Cl)c(Cl)c1 [Compound 113] | 51% | 66% | –
O=C(NCCCN(CCc1ccccc1)CCc1ccc(Cl)c(Cl)c1)Nc1ccccc1-c1ccccc1 [Compound 114] | 51% | 22% | –
CCOC(=O)C1CC1CN(CCCNC(=O)Nc1ccccc1-c1ccccc1)CCc1ccc(Cl)c(Cl)c1 (stereo not drawn) [Compound 115] | 57% | 62% | –
O=C(NCCCN(CCc1ccc(Cl)c(Cl)c1)C[C@@H]1CCCN1)Nc1ccccc1-c1ccccc1 [Compound 116] | 68% | 82% | –
CC(C)CN(CCCNC(=O)Nc1ccc(Br)cc1)CCc1c[nH]cn1 [Compound 118] | 58% | 62% | –

Compound | Ca^2+ mobilization 6.25 µg/ml (inhibition %) [4] | CCR-3 Transfectant Chemotaxis Assay 6.25 µg/ml (inhibition %) [1] | further results
CC(C)CCN(CCCNC(=O)Nc1ccc(Br)cc1)CCc1c[nH]cn1 [Compound 119] | 62% | 65% | –
O=C(NCCCN(CCc1ccccc1)CCc1c[nH]cn1)Nc1ccc(Br)cc1 [Compound 120] | 57% | 34% | –
O=C(NCCCN(CCOCc1ccccc1)CCc1c[nH]cn1)Nc1ccc(Br)cc1 [Compound 121] | 52% | 64% | –
CC(C)CN(CCCNC(=O)Nc1ccc(Br)cc1)C1CCCc2ccccc21 (stereo not drawn) [Compound 122] | 66% | 92% | –
CCOC(=O)C1CC1CN(CCCNC(=O)Nc1ccc(Br)cc1)C1CCCc2ccccc21 (stereo not drawn) [Compound 125] | 65% | 90% | –
CC(C)CN(CCCNC(=O)Nc1ccc(Br)cc1)Cc1ccc2c(c1)OCO2 [Compound 126] | 54% | 54% | –
O=C(NCCCN(Cc1ccc2c(c1)OCO2)C[C@@H]1CCCN1)Nc1ccc(Br)cc1 [Compound 128] | 55% | 33% | –
Cc1ccc(CCN(CCCNC(=O)Nc2ccc(Br)cc2)CCCC(=O)O)cc1 [Compound 132] | 55% | 11% | –
O=C(O)CCCN(CCCNC(=O)Nc1ccc(Br)cc1)CCc1ccc(Cl)c(Cl)c1 [Compound 133] | 63% | 21% | –
Cc1cccc(NC(=O)NCCCN(C[C@@H]2CCCN2)C2CCCc3ccccc32)c1 (stereo partly drawn) [Compound 135] | 57% | 12% | –
Cc1cccc(NC(=O)NCCCN(Cc2ccc3c(c2)OCO3)CC(C)C)c1 [Compound 136] | 63% | 32% | –
CCN(CCCNC(=O)Nc1cccc(C)c1)CCc1ccccc1 [Compound 137] | 50% | 40% | –
CCOC(=O)C1CC1CN(CCCNC(=O)Nc1cccc(C)c1)CCc1ccccc1 (stereo not drawn) [Compound 138] | 56% | 31% | –
CCOC(=O)C1CC1CN(CCCNC(=O)Nc1cccc(Cl)c1)C1CCCc2ccccc21 (stereo not drawn) [Compound 149] | 56% | 31% | –
CCOC(=O)C1CC1CN(CCCNC(=O)Nc1cccc(Cl)c1)CCc1ccc(Cl)c(Cl)c1 (stereo not drawn) [Compound 155] | 69% | 56% | –
